Holding throughout (experiment): Ras GTP binding domain inhibition assay (labeled GTP)
One assay has as its target KRas G12D mutant protein (Homo sapiens (Human), UniProt P01116, G12D). To be noted: 20 μM compound; KRas G12D; read-out: % Inhibition at 20 μM of K-Ras mutant and wild-type protein, KRas G12D.
Another assay addresses KRas wild type (Homo sapiens (Human), UniProt P01116). To be noted: 20 μM compound; KRas wild type; read-out: % Inhibition at 20 μM of K-Ras mutant and wild-type protein, KRas wild type. In a few lines:
(§1)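 Labelled-GTP binding: plate-captured His-KRas protein was pre-exposed to compound for 3 h at room temperature (single 20 μM point or dilution series, 1% DMSO, Tris pH 7.5/MgCl2/DTT buffer). Cy3- or Cy5-GTP was then added for 45 min. Washed wells were read for retained fluorescence to give inhibition or IC50.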

The target of the next assay is KRas G12C mutant (Homo sapiens (Human), UniProt P01116, G12C). To be noted: 20 μM compound; KRas G12C; read-out: % Inhibition at 20 μM of K-Ras mutant and wild-type protein, KRas G12C. Put shortly:
as §1

Sequence of KRas wild type (P01116-2 other isoform, or with tags, fused parts or gaps): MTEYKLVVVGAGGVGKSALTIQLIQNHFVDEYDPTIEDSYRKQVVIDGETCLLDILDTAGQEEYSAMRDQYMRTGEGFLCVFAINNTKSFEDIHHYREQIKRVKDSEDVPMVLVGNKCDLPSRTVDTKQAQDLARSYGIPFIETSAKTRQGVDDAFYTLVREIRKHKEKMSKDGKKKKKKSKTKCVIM
Sequence of KRas G12D mutant protein (P01116-2 other isoform, or with tags, fused parts or gaps G12D): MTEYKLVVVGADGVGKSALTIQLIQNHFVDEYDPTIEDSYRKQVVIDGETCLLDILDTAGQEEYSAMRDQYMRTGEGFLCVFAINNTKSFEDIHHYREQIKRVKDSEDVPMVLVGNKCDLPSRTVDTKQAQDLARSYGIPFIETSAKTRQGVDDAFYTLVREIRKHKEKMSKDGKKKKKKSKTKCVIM
Sequence of KRas G12C mutant (P01116-2 other isoform, or with tags, fused parts or gaps G12C): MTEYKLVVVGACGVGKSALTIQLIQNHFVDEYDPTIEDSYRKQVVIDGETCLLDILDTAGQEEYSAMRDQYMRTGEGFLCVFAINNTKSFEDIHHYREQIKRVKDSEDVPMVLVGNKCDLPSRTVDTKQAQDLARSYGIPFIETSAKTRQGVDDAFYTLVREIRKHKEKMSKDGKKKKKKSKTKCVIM

For `Cn1ccnc1-c1nc(O)c2scc(-c3cccc(Cl)c3)c2n1` [drawing 3617], the inhibition at 20 µM on KRas G12D mutant protein, at KRas wild type and at KRas G12C mutant was 25 to 50% each time.
Take `COCCNc1nc(-c2nccn2C)nc2sc(-c3ccncc3)c(-c3ccccc3)c12` [drawing 3582]: the inhibition (in general, the relative decrease from the control value, in per cent) at 20 µM on KRas G12D mutant protein is 51 to 75%; at KRas wild type it was 76 to 100%; on KRas G12C mutant, 51 to 75%.
As for `Cc1ccccc1-c1c(C)sc2c(O)nc(-c3nccn3C)nc12`, the inhibition at 20 µM at KRas G12D mutant protein was 25 to 50%; at KRas wild type, 25 to 50%; on KRas G12C mutant, 1 to 25%.
As for `COCCNc1nc(-c2ccccn2)nc2sc(-c3ccccc3)c(-c3ccccn3)c12` [drawing 3620], the inhibition at 20 µM on KRas G12D mutant protein is 1 to 25%; at KRas wild type, 0%; at KRas G12C mutant, 1 to 25%.
Turning to `Cc1sc2c(O)nc(-c3nccn3C)nc2c1-c1cccc(C(F)(F)F)c1` [drawing 3599], the inhibition at 20 µM on KRas G12D mutant protein, at KRas wild type and at KRas G12C mutant was 1 to 25% each time.
Take `Cn1ccnc1-c1nc(O)c2scc(-c3cccc(C(F)(F)F)c3)c2n1` [drawing 3598]: the figures for the inhibition at 20 µM on KRas G12D mutant protein, on KRas wild type and on KRas G12C mutant were 25 to 50%, 25 to 50% and 1 to 25%, respectively.
As to `Cn1ccnc1-c1nc(O)c2scc(-c3ccc(C(C)(C)C)cc3)c2n1` [drawing 3619], the inhibition at 20 µM at KRas G12D mutant protein fell in the range of 1 to 25%; on KRas wild type, 1 to 25%; at KRas G12C mutant it was 25 to 50%.
Take `Cc1sc2c(O)nc(-c3nccn3C)nc2c1-c1ccc(OC(C)C)c(F)c1` [drawing 3610]: the inhibition at 20 µM on KRas G12D mutant protein was 51 to 75%; on KRas wild type it was 25 to 50%; at KRas G12C mutant it was 1 to 25%.
On to `CCOCCOc1nc(-c2nccn2C)nc2sc(-c3ccccc3)c(-c3ccccc3)c12` [drawing 3572], for which the inhibition at 20 µM at KRas G12D mutant protein was 1 to 25%; on KRas wild type, 25 to 50%; on KRas G12C mutant, 0%.
As to `COCCNc1nc(-c2nccn2C)nc2sc(-c3cccc(OC)c3)c(-c3ccccc3)c12` [drawing 3586], the inhibition at 20 µM on KRas G12D mutant protein was 25 to 50%; on KRas wild type, 25 to 50%; on KRas G12C mutant, 1 to 25%.
Take `Cn1ccnc1-c1nc(O)c2scc(-c3ccccc3Cl)c2n1` [drawing 3615]: the inhibition at 20 µM on KRas G12D mutant protein, at KRas wild type and at KRas G12C mutant was 25 to 50% throughout.
For `COCCNc1nc(-c2cccc(N)n2)nc2sc(-c3ccccc3)c(-c3ccccc3)c12` [drawing 3591], the figures for the inhibition at 20 µM at KRas G12D mutant protein, at KRas wild type and on KRas G12C mutant were 0%, 0% and 1 to 25%, respectively.
Consider `COCCNc1nc(-c2nccn2C)nc2sc(C3CCOCC3)c(-c3ccccc3)c12` [drawing 3590], for which the inhibition at 20 µM was in the range of 51 to 75% on KRas G12D mutant protein, 51 to 75% at KRas wild type and 25 to 50% at KRas G12C mutant.
Turning to `CC(C)OCCNc1nc(-c2nccn2C)nc2sc(-c3ccccc3)c(-c3ccccc3)c12` [drawing 3567], the inhibition at 20 µM at KRas G12D mutant protein, on KRas wild type and at KRas G12C mutant was 51 to 75% in each case.
Consider `COCCN(C)c1nc(-c2nccn2C)nc2sc(-c3ccccc3)c(-c3ccccc3)c12` [drawing 3566], for which the inhibition at 20 µM on KRas G12D mutant protein lay in the range of 51 to 75%; on KRas wild type it was 51 to 75%; on KRas G12C mutant, 25 to 50%.
`Cc1sc2c(O)nc(-c3nccn3C)nc2c1-c1ccc(F)cc1F` [drawing 3621]: the inhibition at 20 µM on KRas G12D mutant protein, on KRas wild type and on KRas G12C mutant was 1 to 25% each time.
Turning to `COc1ccc(-c2c(-c3ccccc3)sc3c(O)nc(-c4nccn4C)nc23)cn1` [drawing 3593], the inhibition at 20 µM on KRas G12D mutant protein, on KRas wild type and on KRas G12C mutant was 1 to 25% in each case.
With `COc1ccc(-c2c(C)sc3c(O)nc(-c4nccn4C)nc23)cn1` [drawing 3601], the inhibition at 20 µM on KRas G12D mutant protein, at KRas wild type and on KRas G12C mutant was 1 to 25% each time.
Regarding `COCCNc1nc(-c2nccn2C)nc2sc(-c3ccccc3)c(-c3ccccc3Cl)c12` [drawing 3580], the inhibition at 20 µM on KRas G12D mutant protein was 25 to 50%; on KRas wild type it was 1 to 25%; at KRas G12C mutant, 25 to 50%.
As for `COC(C)(C)c1ccc(-c2csc3c(O)nc(-c4nccn4C)nc23)cc1` [drawing 3618], the inhibition at 20 µM on KRas G12D mutant protein was 25 to 50%; on KRas wild type, 25 to 50%; on KRas G12C mutant, 0%.
On to `CC(C)COc1ccc(-c2c(-c3ccccc3)sc3c(O)nc(-c4nccn4C)nc23)cn1` [drawing 3587], for which the inhibition at 20 µM at KRas G12D mutant protein lay in the range of 51 to 75%; at KRas wild type, 51 to 75%; on KRas G12C mutant it was 25 to 50%.
On to `COCCNc1nc(-c2nccn2C)nc2sc(-c3ccccc3)c(-c3ccncc3)c12` [drawing 3596], for which the inhibition at 20 µM on KRas G12D mutant protein is 51 to 75%; on KRas wild type, 51 to 75%; on KRas G12C mutant, 25 to 50%.
On to `Oc1nc(-c2ncccn2)nc2c(-c3cccc(C(F)(F)F)c3)csc12` [drawing 3608], for which the values for the inhibition at 20 µM on KRas G12D mutant protein, on KRas wild type and at KRas G12C mutant were 25 to 50%, 51 to 75% and 25 to 50%, respectively.
As to `Oc1nc(-c2ccncn2)nc2c(-c3cccc(C(F)(F)F)c3)csc12` [drawing 3607], the inhibition at 20 µM at KRas G12D mutant protein fell in the range of 1 to 25%; at KRas wild type, 25 to 50%; at KRas G12C mutant, 25 to 50%.
With `CCOCCNc1nc(-c2nccn2C)nc2sc(-c3ccccc3)c(-c3ccccc3)c12` [drawing 3575], the inhibition at 20 µM at KRas G12D mutant protein, on KRas wild type and at KRas G12C mutant was 51 to 75% throughout.
In the case of `COCCNc1nc(-c2nccn2C)nc2sc(-c3ccccc3)c(-c3ccc(OC)cc3)c12` [drawing 3589], the inhibition at 20 µM on KRas G12D mutant protein, on KRas wild type and at KRas G12C mutant was 25 to 50% throughout.
As to `COCCNc1nc(-c2nccn2C)nc2sc(-c3ccc(OC)cc3)c(-c3ccccc3)c12` [drawing 3597], the inhibition at 20 µM on KRas G12D mutant protein fell in the range of 25 to 50%; on KRas wild type it was 1 to 25%; at KRas G12C mutant, 1 to 25%.
As to `COCCNc1nc(-c2nccn2C)nc2sc(C)c(-c3ccccc3)c12` [drawing 3584], the inhibition at 20 µM at KRas G12D mutant protein, at KRas wild type and on KRas G12C mutant was 51 to 75% throughout.
On to `COCCNc1nc(-c2cn(C)cn2)nc2sc(-c3ccccc3)c(-c3ccccc3)c12` [drawing 3583], for which the inhibition at 20 µM on KRas G12D mutant protein lay in the range of 25 to 50%; at KRas wild type, 51 to 75%; at KRas G12C mutant, 25 to 50%.
Consider `COc1nc(-c2ccccn2)nc(Oc2cccc(C(F)(F)F)c2)c1O` [drawing 3565], for which the results for the inhibition at 20 µM at KRas G12D mutant protein, on KRas wild type and on KRas G12C mutant were 51 to 75%, 1 to 25% and 25 to 50%, respectively.
Regarding `Cn1cnc(-c2nc(O)c3scc(-c4cccc(C(F)(F)F)c4)c3n2)c1` [drawing 3604], the inhibition at 20 µM lay within 25 to 50% at KRas G12D mutant protein, 51 to 75% on KRas wild type and 25 to 50% at KRas G12C mutant.
Regarding `Cn1ccnc1-c1nc(O)c2sc(-c3ccccc3)c(-c3ccccc3)c2n1` [drawing 3588], the inhibition at 20 µM is 0% at KRas G12D mutant protein, 1 to 25% at KRas wild type and 0% at KRas G12C mutant.
Consider `COCCNc1nc(-c2ccncn2)nc2sc(-c3ccccc3)c(-c3ccccc3)c12` [drawing 3574], for which the inhibition at 20 µM on KRas G12D mutant protein is 0%; on KRas wild type, 1 to 25%; at KRas G12C mutant it was 1 to 25%.
For `COCCNc1nc(-c2cn(C)cn2)nc2sc(C)c(-c3ccccc3)c12` [drawing 3585], the inhibition at 20 µM on KRas G12D mutant protein lay within 25 to 50%; on KRas wild type it was 51 to 75%; at KRas G12C mutant it was 25 to 50%.
In the case of `Cn1ccnc1-c1nc(O)c2scc(-c3cccc(OC(F)(F)F)c3)c2n1` [drawing 3603], the inhibition at 20 µM lay in the range of 51 to 75% at KRas G12D mutant protein, 25 to 50% on KRas wild type and 1 to 25% on KRas G12C mutant.
`Cn1ccnc1-c1nc(NCCOC(F)(F)F)c2c(-c3ccccc3)c(-c3ccccc3)sc2n1` [drawing 3568]: the figures for the inhibition at 20 µM at KRas G12D mutant protein, at KRas wild type and at KRas G12C mutant were 25 to 50%, 25 to 50% and 1 to 25%, respectively.
On to `CCN(CC)CCOc1nc(-c2nccn2C)nc2sc(-c3ccccc3)c(-c3ccccc3)c12` [drawing 3573], for which the results for the inhibition at 20 µM on KRas G12D mutant protein, at KRas wild type and at KRas G12C mutant were 25 to 50%, 51 to 75% and 25 to 50%, respectively.
Regarding `Cn1ccnc1-c1nc(O)c2sc(-c3ccccc3)c(-c3ccccc3Cl)c2n1` [drawing 3595], the inhibition at 20 µM on KRas G12D mutant protein was in the range of 51 to 75%; on KRas wild type, 25 to 50%; at KRas G12C mutant it was 51 to 75%.
Regarding `Cn1ccnc1-c1nc(O)c2scc(-c3ccc(F)cc3F)c2n1` [drawing 3616], the inhibition at 20 µM at KRas G12D mutant protein was in the range of 25 to 50%; on KRas wild type it was 1 to 25%; at KRas G12C mutant, 1 to 25%.
For the molecule `Cn1ccnc1-c1nc(NCCOC2CC2)c2c(-c3ccccc3)c(-c3ccccc3)sc2n1` [drawing 3576], the figures for the inhibition at 20 µM at KRas G12D mutant protein, on KRas wild type and on KRas G12C mutant were 1 to 25%, 25 to 50% and 25 to 50%, respectively.
Regarding `CC(O)CNc1nc(-c2nccn2C)nc2sc(-c3ccccc3)c(-c3ccccc3)c12` (stereo not drawn) [drawing 3569], the inhibition at 20 µM on KRas G12D mutant protein, on KRas wild type and at KRas G12C mutant was 1 to 25% in each case.

For the origin of these results see US10940139B2, “Compounds that interact with the Ras superfamily for the treatment of cancers, inflammatory diseases, rasopathies, and fibrotic disease” (Shy Therapeutics LLC, priority 2017, dated 2021).
